The target of assay [1] is T1, Genome polyprotein (dengue virus type 2, UniProt P29990). The class given is functional, Thailand/16681/1984.
For assay [2], the target named is T1, Genome polyprotein. The format is functional, Thailand/16681/1984. This is another data set of the same source.

Where “and” joins values, the source holds several entries; their conditions need not be identical. Identical values can stand only once.

T1 sequence (P29990 1346-1475 limits assumed): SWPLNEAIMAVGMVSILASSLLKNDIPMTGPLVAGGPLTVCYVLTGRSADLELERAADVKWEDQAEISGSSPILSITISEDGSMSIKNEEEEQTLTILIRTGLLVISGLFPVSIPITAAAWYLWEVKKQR
T1 sequence (P29990 1476-2093 limits assumed): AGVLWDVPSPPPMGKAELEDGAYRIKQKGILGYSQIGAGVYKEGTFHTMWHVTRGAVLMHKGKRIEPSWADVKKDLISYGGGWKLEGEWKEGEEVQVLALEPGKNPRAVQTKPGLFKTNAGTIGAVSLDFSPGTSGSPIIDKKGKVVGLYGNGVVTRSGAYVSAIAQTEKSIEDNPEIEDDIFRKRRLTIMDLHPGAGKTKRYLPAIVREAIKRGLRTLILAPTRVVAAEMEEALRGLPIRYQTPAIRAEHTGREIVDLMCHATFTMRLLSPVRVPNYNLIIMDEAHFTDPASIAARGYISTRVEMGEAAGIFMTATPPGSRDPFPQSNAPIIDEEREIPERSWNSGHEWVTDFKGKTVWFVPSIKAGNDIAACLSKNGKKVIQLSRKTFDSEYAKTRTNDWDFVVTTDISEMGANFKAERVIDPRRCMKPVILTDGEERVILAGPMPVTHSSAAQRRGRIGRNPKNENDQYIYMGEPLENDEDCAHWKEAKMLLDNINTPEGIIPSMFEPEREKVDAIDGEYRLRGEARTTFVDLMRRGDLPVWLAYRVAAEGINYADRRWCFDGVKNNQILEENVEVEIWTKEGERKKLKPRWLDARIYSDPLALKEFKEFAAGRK

Take `Cc1ncc2c(n1)CCC[C@H]2NC(=O)c1cccc2c1CC(=O)N2`: the IC50 – broadly, the point on the concentration scale where inhibition reaches its midpoint – against Genome polyprotein [1] is over 99.5 µM; on Genome polyprotein [2], over 100 µM.
Take `O=C1Cc2c(cccc2C(=O)N[C@H]2C[C@H](OC(F)F)C2)N1`: the IC50 on Genome polyprotein [1] is over 99.5 µM; on Genome polyprotein [2], over 100 µM.
The corresponding values for `O=C(Nc1ccc2c(c1)CNC2)c1cc(F)cc2[nH]c(-c3cnc(C4CC4)o3)nc12` are over 49.7 µM and over 100 µM.
The corresponding values for `O=C1Cc2c(cccc2C(=O)Nc2cc3c(cn2)OCCO3)N1` are over 99.5 µM and over 100 µM.
The corresponding values for `O=C(NCC(F)F)[C@H](Nc1ccc2c(c1)CNC2)c1cc(Cl)ccc1Cl` are over 99.5 µM and over 100 µM.
With `COc1cccc(-c2nc3c(C(=O)Nc4ccc5c(c4)CNC5)cc(F)cc3[nH]2)c1`, the IC50 is 8.12 µM and 5.22 µM against Genome polyprotein [1]; over 100 µM at Genome polyprotein [2].
With `CO[C@H]1C[C@H](n2ncc3c(C(=O)Nc4ccc5c(c4)CNC5)cc(Cl)cc32)C1`, the IC50 was over 99.5 µM against Genome polyprotein [1] and over 100 µM at Genome polyprotein [2].
For `O=C1Cc2c(cccc2C(=O)N[C@H]2CCC[C@@H](C(=O)NC3CC3)C2)N1`, in that order: over 99.5 µM and over 100 µM.
`O=C1Cc2c(cccc2C(=O)N[C@H]2COc3cc(Br)cnc32)N1`: the figures for the IC50 at Genome polyprotein [1] and against Genome polyprotein [2] were over 99.5 µM and over 100 µM, respectively.
In the case of `O=C(Nc1ccc2c(c1)CNC2)c1cc(F)cc2[nH]c(CC[C@H]3CCCOC3)nc12`, the IC50 against Genome polyprotein [1] is 76.2 µM; on Genome polyprotein [2], over 100 µM.
On to `O=C(NCC(F)F)[C@H](Nc1ccc2c(c1)CNC2)c1cccc(Cl)c1`, for which the IC50 is over 99.5 µM on Genome polyprotein [1] and over 100 µM on Genome polyprotein [2].
For the molecule `O=C1Cc2c(cccc2C(=O)Nc2ccn(C[C@H]3CCOC3)n2)N1`, the 50% inhibitory concentration (IC50) against Genome polyprotein [1] is over 99.5 µM; against Genome polyprotein [2], over 100 µM.
The corresponding values for `Cc1cc(N2CCC(NC(=O)c3cccc4c3CC(=O)N4)CC2)[nH]n1` are over 99.5 µM and over 100 µM.
For `O=C(Nc1cc(-c2cccnc2)ccn1)c1cc(C2CC2)on1`, in that order: over 99.5 µM and over 100 µM.
The corresponding values for `CCO[C@@H]1CC[C@H]1NC(=O)c1cccc2c1CC(=O)N2` are over 99.5 µM and over 100 µM.
On to `O=C1Cc2c(cccc2C(=O)NC[C@H]2C[C@@H](n3cccn3)C2)N1`, for which the values for the IC50 against Genome polyprotein [1] and on Genome polyprotein [2] were over 99.5 µM and over 100 µM, respectively.
Turning to `O=C1Cc2c(cccc2C(=O)N[C@H]2CCc3ncsc3C2)N1`, the IC50 against Genome polyprotein [1] was over 99.5 µM; at Genome polyprotein [2], over 100 µM.
As for `Cc1nc(C2CC2)[nH]c1C(=O)Nc1cc(-c2cccnc2)ccn1`, the IC50 against Genome polyprotein [1] is over 99.5 µM; against Genome polyprotein [2], over 100 µM.
The corresponding values for `CN1C(=O)CC[C@H]1c1nc2c(C(=O)Nc3ccc4c(c3)CNC4)cc(F)cc2[nH]1` are over 99.5 µM and over 100 µM.
For `O=C1Cc2c(cccc2C(=O)N[C@H]2CC[C@H](OC3CCCC3)CC2)N1`, in that order: over 99.5 µM and over 100 µM.
For `CCOCC1(c2nc3c(C(=O)Nc4ccc5c(c4)CNC5)cc(F)cc3[nH]2)CC1`, in that order: over 99.5 µM and over 100 µM.
In the case of `NCc1cccc(-c2csc3cc(C(=O)Nc4ccc5c(c4)CNC5)ccc23)c1`, the IC50 is 22.4 µM and 14.7 µM at Genome polyprotein [1]; over 100 µM against Genome polyprotein [2].
As for `O=C(Nc1ccc2c(c1)CNC2)c1cc(F)cc2[nH]c(-c3cccc(F)c3)nc12`, the IC50 on Genome polyprotein [1] is 4.86 µM and 4.62 µM; against Genome polyprotein [2], 44.1 µM and 36 µM.
Take `O=C1Cc2c(cccc2C(=O)N[C@H]2C[C@@H](c3ncc[nH]3)C2)N1`: the figures for the IC50 against Genome polyprotein [1] and against Genome polyprotein [2] were over 99.5 µM and over 100 µM, respectively.
Consider `Cc1nc(C2(NC(=O)c3cccc4c3CC(=O)N4)CCC2)no1`, for which the IC50 at Genome polyprotein [1] is over 99.5 µM; against Genome polyprotein [2], over 100 µM.
The corresponding values for `C[C@H]1C[C@H]1c1cc(C(=O)Nc2cc(-c3cccnc3)ccn2)no1` are over 99.5 µM and over 100 µM.
The corresponding values for `O=C1Cc2c(cccc2C(=O)NC2(c3ncccc3F)CC2)N1` are over 99.5 µM and over 100 µM.
For `O=C1Cc2c(cccc2C(=O)NC2CCN(c3nccs3)CC2)N1`, in that order: over 99.5 µM and over 100 µM.
On to `O=C(NCC(F)F)[C@H](Nc1ccc2c(c1)CNC2)c1cccc2c1CCC2`, for which the IC50 against Genome polyprotein [1] was over 99.5 µM; on Genome polyprotein [2], over 100 µM.
With `Cc1[nH]c(-c2ccccc2)cc1C(=O)Nc1cc(-c2cccnc2)ccn1`, the IC50 against Genome polyprotein [1] was over 99.5 µM; on Genome polyprotein [2], over 100 µM.
For the molecule `CC(C)NC(=O)[C@H](Nc1ccc2c(c1)CN(C)C2)c1cc(Cl)cc2[nH]ncc12`, the IC50 is over 99.5 µM on Genome polyprotein [1]; 57.6 µM and > 100 µM against Genome polyprotein [2].
In the case of `Cc1c(C(=O)Nc2cccc(-c3ccc(O)nc3)c2)cc(C2CC2)n1C`, the figures for the IC50 on Genome polyprotein [1] and against Genome polyprotein [2] were over 99.5 µM and over 100 µM, respectively.
For `CCc1cc2c(cc1NC(=O)c1cc(F)cc3[nH]ncc13)CNC2`, in that order: over 99.5 µM and over 100 µM.
The corresponding values for `CC1(NC(=O)c2cccc3c2CC(=O)N3)CCOCC1` are over 99.5 µM and over 100 µM.
Turning to `O=C(Nc1ccc2c(c1)CNC2)c1ccc2c(C3=CCNCC3)csc2c1`, the IC50 on Genome polyprotein [1] was 52.6 µM and 43.4 µM; at Genome polyprotein [2] it was over 100 µM.
For `COc1ccc(Cl)cc1[C@H](Nc1ccc2c(c1)CNC2)C(=O)NCC(F)F`, the concentration for half-maximal inhibition (IC50) at Genome polyprotein [1] is over 99.5 µM; against Genome polyprotein [2], over 100 µM.
For `O=C1Cc2c(cccc2C(=O)N[C@H]2CCC23CCOCC3)N1`, in that order: over 99.5 µM and over 100 µM.
Take `O=C1Cc2c(cccc2C(=O)Nc2ccc(-c3cccnc3)cn2)N1`: the IC50 against Genome polyprotein [1] was over 99.5 µM; on Genome polyprotein [2], over 100 µM.
For `COc1ccccc1Cn1cnc2cc(C(=O)Nc3ccc4c(c3)CNC4)ccc21`, in that order: over 99.5 µM and over 100 µM.
The corresponding values for `CC(C)(O)c1cncc(NC(=O)c2cccc3c2CC(=O)N3)c1` are over 99.5 µM and over 100 µM.
For `C[C@H](NC(=O)c1cccc2c1CC(=O)N2)c1cccc(S(C)(=O)=O)c1`, in that order: over 99.5 µM and over 100 µM.
For the molecule `O=C(NCC(F)F)[C@H](Nc1ccc2c(c1)CNC2)c1cc(Cl)cc2c1CCC2`, the IC50 against Genome polyprotein [1] was over 99.5 µM; at Genome polyprotein [2], over 100 µM.
The corresponding values for `COC(=O)N1CCc2cc(NC(=O)c3cc(C4CC4)n(C)c3C)ccc21` are over 99.5 µM and over 100 µM.
The corresponding values for `O=C(NCC(F)F)[C@H](Nc1ccc2c(c1)CNC2)c1cc(Cl)cc2ccoc12` are over 99.5 µM and over 100 µM.
For `O=C(Nc1ccc2c(c1)CNC2)c1cccc2c1[C@]1(CCN(C(=O)OCc3ccccc3)C1)C(=O)N2`, in that order: over 99.5 µM and over 100 µM.
As for `O=C1Cc2c(cccc2C(=O)N[C@H]2C[C@H](c3ccon3)C2)N1`, the IC50 against Genome polyprotein [1] is over 99.5 µM; against Genome polyprotein [2], over 100 µM.
Consider `O=C1Cc2c(cccc2C(=O)N[C@H]2CCSC3(CCOCC3)C2)N1`, for which the IC50 is over 99.5 µM against Genome polyprotein [1] and over 100 µM on Genome polyprotein [2].
As to `O=C1Cc2c(cccc2C(=O)NC2(c3ccc(O)nc3)CC2)N1`, the IC50 against Genome polyprotein [1] is over 99.5 µM; at Genome polyprotein [2], over 100 µM.
For `Cc1cc(=O)[nH]c(-c2cccc(NC(=O)c3cc(C4CC4)n(C)c3C)c2)n1`, the IC50 against Genome polyprotein [1] was over 99.5 µM; against Genome polyprotein [2], over 100 µM.
Regarding `NC(=O)N1CCc2ccc(NC(=O)c3cccc4c3CC(=O)N4)cc21`, the IC50 on Genome polyprotein [1] is over 99.5 µM; on Genome polyprotein [2], over 100 µM.
The corresponding values for `Cc1[nH]nc2c1CC[C@H](NC(=O)c1cccc3c1CC(=O)N3)C2` are over 99.5 µM and over 100 µM.
The corresponding values for `COc1cc(C#N)cc([C@H](Nc2ccc3c(c2)CNC3)C(=O)NCC(F)F)c1` are over 99.5 µM and over 100 µM.
For `N#Cc1csc2cc(C(=O)Nc3ccc4c(c3)CNC4)ccc12`, in that order: over 99.5 µM and over 100 µM.
For the molecule `O=C(Nc1ccc2c(c1)CNC2)c1cc(F)cc(C2=CCOCC2)c1`, the IC50 against Genome polyprotein [1] is over 49.7 µM; at Genome polyprotein [2] it was over 100 µM.
The corresponding values for `Cc1c(NC(=O)c2cccc3c2CC(=O)N3)cnn1C1CCOCC1` are over 99.5 µM and over 100 µM.
The corresponding values for `C=CCNC(=O)C1(NC(=O)c2cccc3c2CC(=O)N3)CCCCC1` are over 99.5 µM and over 100 µM.
For `COc1ccc([C@@H]2C[C@H]2NC(=O)c2cccc3c2CC(=O)N3)cc1`, in that order: over 99.5 µM and over 100 µM.
On to `O=C1Cc2c(cccc2C(=O)N[C@H]2CC[C@@H](n3ccnn3)CC2)N1`, for which the IC50 was over 99.5 µM against Genome polyprotein [1] and over 100 µM against Genome polyprotein [2].
For `COC(=O)c1cc2c(cc1NC(=O)c1cc(F)cc3[nH]ncc13)CNC2`, in that order: over 99.5 µM and over 100 µM.
With `O=C1Cc2c(cccc2C(=O)NC2CC3(CCOCC3)C2)N1`, the IC50 against Genome polyprotein [1] is over 99.5 µM; against Genome polyprotein [2], over 100 µM.
For `O=C(Nc1ccc2c(c1)CNC2)c1cc(F)cc2[nH]c(CCc3cccnc3)nc12`, in that order: over 99.5 µM and over 100 µM.
The corresponding values for `O=C1Cc2c(cccc2C(=O)N[C@H]2CCc3cnccc32)N1` are over 99.5 µM and over 100 µM.
For `C[C@H](NC(=O)c1cccc2c1CC(=O)N2)c1cc2cnccc2o1`, in that order: over 99.5 µM and over 100 µM.
As for `C[C@H](NC(=O)c1cccc2c1CC(=O)N2)c1ccncc1F`, the IC50 against Genome polyprotein [1] is over 99.5 µM; against Genome polyprotein [2], over 100 µM.
The corresponding values for `CCCn1ncc2c(C(=O)Nc3ccc4c(c3)CNC4)cc(Cl)cc21` are over 99.5 µM and over 100 µM.
The corresponding values for `Cn1nc(CNc2ccc3c(c2)CNC3)cc1C1CC1` are over 99.5 µM and over 100 µM.
Turning to `O=C(Nc1ccc2c(c1)CNC2)c1cc(Cl)cc2c1cnn2C1CCC1`, the IC50 was over 99.5 µM on Genome polyprotein [1] and over 100 µM at Genome polyprotein [2].
The corresponding values for `O=C1Cc2c(cccc2C(=O)NC[C@H]2CCCN(c3nccs3)C2)N1` are over 99.5 µM and over 100 µM.
The corresponding values for `O=C1Cc2c(cccc2C(=O)NCC2(F)CC3(CCOCC3)C2)N1` are over 99.5 µM and over 100 µM.
`COc1ccc(-c2nc3c(C(=O)Nc4ccc5c(c4)CNC5)cc(F)cc3[nH]2)cc1`: the IC50 on Genome polyprotein [1] is over 99.5 µM; on Genome polyprotein [2] it was over 100 µM.
